Reference: patent publication US9480688B2, “Pheromone compositions and their use to modify behavior in different vertebrate species” (priority 2011, dated 2016)

Tests used:
barking/jumping dogs = assay: Aerosol spray test on barking/jumping dogs in a kennel; assay type: in vivo, dog; settings: for % Effective (no barking/jumping within 1 minute): 6 dogs
Description: An aerosol spray composition comprising Androstenone solution was prepared in accordance with Example 1, but was then diluted in isopropyl alcohol to obtain a 1:1,000 dilution of the original concentration. The purpose of the dilution was to mask the odor of the Androstenone, which can be smelled by humans at high concentrations. The spray solution was placed in a metal aerosol can pressurized with propane. A noise making device was also added to the aerosol can. The propellant, when forced through small holes, caused a sound that exceeded 70 decibels.
The efficacy of an aerosol spray composition containing Androstenone was tested in a commercial research facility housing a large number of dogs. A designated person walked the aisles of the kennel with a calm dog on a leash in order to identify those dogs that met the criteria of barking/jumping. The calm dog on the leash was walked in the center aisle between kennels and also sat outside the kennels. To qualify as a test subject, a dog had to repeatedly jump and bark while the calm dot and the person were in the aisle. A total of 15 dogs were chosen as test subjects.
The dogs were separated into two treatment groups. […] The dogs in treatment group #2 were treated, when observed to be engaging in barking/jumping behavior, with a loud spray canister to which the diluted spray composition containing Androstenone had been added. The test period was for 1 minute.

anxious dogs = assay: Heart rate of anxious dogs after Androstenone spray (telemetry); assay type: in vivo, dog; settings: four anxious dogs, 10 minutes following spray with about 0.1 μg/mL Androstenone in isopropyl alcohol
Description: A study was conducted to determine whether dogs' heart rate increased following application with an aerosol spray containing Androstenone.
An aerosol spray was prepared which contained about 0.1 μg/mL of Androstenone and isopropyl alcohol using the formulation provided in Example 1.
Four dogs determined to be “anxious” were fit with telemetry jackets and transmitters in order to continually monitor heart rate. Dot heart rates were measured for 10 minutes before treatment, 10 minutes following treatment with a control spray (isopropyl alcohol only), and 10 minutes following treatment with the test spray containing Androstenone and isopropyl alcohol.

head shy horses = assay: Aerosol spray test on head shy horses, scored 1 through 5; assay type: in vivo, horse; settings: for Did not work / Partially worked / Worked well: % of horses
Description: The spray solution was placed in a pressurized metal aerosol can. In one group of aerosol cans, a noise making device was also added to the aerosol can. The propellant, when forced through small holes upon pressing the nozzle, caused a sound that exceeded 70 decibels. In a second group of aerosol cans, the noise making device was not added to the can, such that when the spray composition was pumped, no noise was made.
The efficacy of an aerosol spray composition containing Androstenone was tested using thirteen adult horses, all of which were enrolled in this study after being evaluated and categorized as head shy and hard to handle (i.e., observed to move their heads away from the handler when the handler attempted to touch their heads with his hand or a halter).
The thirteen horses were sorted into two treatment groups. One group (Group 1) of 10 horses received the Androstenone spray composition outlined in Table 4 and control (CON isopropyl alcohol) with noise (n=10), while the second group (Group 2) received the Androstenone spray and control without noise (n=3).
In each group, the control composition was administered to the horses first and then the Androstenone spray was administered to the horses the following day immediately before the handler attempted to touch their ears and heads. The horses' behavior was then recorded and evaluated after each administration. The horses were given a numerical score of 1 through 5.

younger pigs = settings: cited from earlier work
weaning foals = assay: Ointment test on weaning foals, behavioral observations; assay type: in vivo, horse; set-up: increase of vocalizations compared to control treatment: concentration or dose not given beside the values
Description: A total of 20 foals divided into two groups (Group A, n=10; Group B, n=10) were weaned in pens of similar size and at the same time of the day (9 am), and were evaluated using a control and pheromone compositions. All horses were between 5 and 6 months of age and mixed breeds, primarily quarter horses. An ointment form of the composition comprising Androstenone was prepared in accordance with Table 7 for administering to the horses in this study.
An ointment composition containing a different pheromone, 2-methylbut-2-enal (RP, 1 mg/mL), was also prepared for administration in a comparison study. An ointment containing no pheromone was prepared and used as control (CON). In group A, 5 foals were used for the control treatment, 3 foals were used for the RP treatment, and 2 foals were used for the Androstenone treatment. In group B, 3 foals were used for the control treatment, 3 foals were used for the RP treatment, and 4 foals were used for the Androstenone treatment. As such, a total of 8 foals were used for the control treatment, 6 foals were used for the RP treatment, and 6 foals were used for the Androstenone treatment in this entire study. Both of the pheromone formulations and the control were applied to each nostril. Control treatments were administered first to prevent any cross contamination to horses during day two.
Behavioral observations were taken during the first 10 minutes (Group A and Group B) and then for four hours (Group B only) after the mares were separated from their foals. Foal behavior was recorded every minute during the first hour (or 10 minutes) and every 5 minutes for the remaining 3 hours of the study for Group B.
Behaviors were not mutually exclusive.
The number of shocks received by the electric fence (as foals tried to return to their mare) and vocalizations were recorded continuously. The total number of observations of each defined behaviors over the first 4 hours in Group B is presented in Table 9, which also provides the percentage of each behavior over the total number of recorded number of behaviors.

[1] = Group 1, spray with noise, n=10
[2] = Group 1, spray with noise, n=10, listed as Pheromone
[3] = Group 2, no noise, n=3, listed as Pheromone
[4] = Group B, first 4 hours after weaning
[5] = Group B, first 4 hours after weaning, ointment in each nostril
[6] = first 10 minutes post weaning (n = 20)
[7] = first 10 minutes post weaning, Group A and Group B (n = 20)

C[C@]12CCC(=O)C[C@@H]1CC[C@@H]1[C@@H]2CC[C@]2(C)C=CC[C@@H]12 [Androstenone, 5-α-androst-16-en-3-one]
% Effective (no barking/jumping within 1 minute) (barking/jumping dogs; Group 2: loud spray plus Androstenone, aerosol diluted 1:1,000 in isopropyl alcohol, applied in facial/snout region): 100% | % Effective (no barking/jumping within 1 minute) (barking/jumping dogs; Group 3: placebo first, then Androstenone spray (re-spray of dogs not responding to placebo)): 83.5% | % Effective (no barking/jumping within 1 minute), overall Androstenone efficacy (barking/jumping dogs; all dogs that received the Androstenone spray (11 of 12 responded)): 91.7% | observed effect on barking/jumping (barking/jumping dogs; diluted Androstenone spray, dogs): immediate cessation of barking/jumping | time barking/jumping stopped before barking resumed (barking/jumping dogs; the one dog that did not respond by the 60 second criterion, after Androstenone spray): 40 s | effect on heart rate (anxious dogs): no significant effect | horses showing improvement, either fully or partially, in head shy behavior (head shy horses; [1]): 80% | Did not work (head shy horses; [1]): 20% | Partially worked (head shy horses; [1]): 20% | Worked well (head shy horses; [1]): 60% | Did not work (head shy horses; [2]): 20% | Partially worked (head shy horses; [2]): 20% | Worked well (head shy horses; [2]): 60% | Avg. Score (head shy horses; Group 1, spray with noise, n=10, score 1 (little to no effect) to 5 (easier to handle)): 3.9 | horses showing improvement, either fully or partially, in head shy behavior (head shy horses; Group 2, no noise, n=3): 100% | Did not work (head shy horses; Group 2, no noise, n=3): 0% | Partially worked (head shy horses; Group 2, no noise, n=3): 33% | Worked well (head shy horses; Group 2, no noise, n=3): 66% | Partially worked (head shy horses; [3]): 33% | Worked well (head shy horses; [3]): 67% | Avg. Score (head shy horses; Group 2, spray with no noise, n=3, score 1 to 5): 3.9 | effect on aggressive behavior (younger pigs): reduces aggressive behavior | reduction of head shaking compared to control ointment (weaning foals; 4 hour period after weaning): 100% | reduction of pacing compared to control ointment (weaning foals; 4 hour period after weaning): 100% | reduction of trotting/running compared to control ointment (weaning foals; 4 hour period after weaning): 100% | increase of feeding behavior compared to control (weaning foals; 4 hour period after weaning, % of observations eating hay): 98% | Percent of observations: defecation (weaning foals; [4]): 0.0% | Percent of observations: drink (weaning foals; [4]): 0.0% | Percent of observations: feeding (weaning foals; [4]): 11.3% | Percent of observations: fight (weaning foals; [4]): 0.0% | Percent of observations: head shake (weaning foals; [4]): 0.0% | Percent of observations: interact (weaning foals; [4]): 0.8% | Percent of observations: lying (weaning foals; [4]): 0.0% | Percent of observations: pace (weaning foals; [4]): 0.0% | Percent of observations: paw (weaning foals; [4]): 0.0% | Percent of observations: shock (weaning foals; [4]): 0.8% | Percent of observations: stand (weaning foals; [4]): 58.8% | Percent of observations: trot (weaning foals; [4]): 0% | Percent of observations: vocal (weaning foals; [4]): 19.0% | Percent of observations: walk (weaning foals; [4]): 9.2% | Total observations: defecation (weaning foals; [5]): 0 | Total observations: drink (weaning foals; [5]): 0 | Total observations: feeding (weaning foals; [5]): 27 | Total observations: fight (weaning foals; [5]): 0 | Total observations: head shake (weaning foals; [5]): 0 | Total observations: interact (weaning foals; [5]): 2 | Total observations: lying (weaning foals; [5]): 0 | Total observations: pace (weaning foals; [5]): 0 | Total observations: paw (weaning foals; [5]): 0 | Total observations: shock (weaning foals; [5]): 2 | Total observations: stand (weaning foals; [5]): 141 | Total observations: trot (weaning foals; [5]): 0 | Total observations: vocal (weaning foals; [5]): 46 | Total observations: walk (weaning foals; [5]): 22 | Percent of observations: trot (weaning foals; Group B, first 4 hours after weaning, listed as Pheromone A): 0.0% | Percent of observations: defecation (weaning foals; [6]): 0.0% | Percent of observations: drink (weaning foals; [6]): 0.0% | Percent of observations: eat (weaning foals; [6]): 0.0% | Percent of observations: fight (weaning foals; [6]): 0.0% | Percent of observations: head shake (weaning foals; [6]): 0.0% | Percent of observations: interact (weaning foals; [6]): 0.0% | Percent of observations: lying (weaning foals; [6]): 0.0% | Percent of observations: pace (weaning foals; [6]): 0.0% | Percent of observations: paw (weaning foals; [6]): 0.0% | Percent of observations: shock (weaning foals; [6]): 0.0% | Percent of observations: stand (weaning foals; [6]): 81.8% | Percent of observations: trot (weaning foals; [6]): 0.0% | Percent of observations: vocal (weaning foals; [6]): 37.1% | Percent of observations: walk (weaning foals; [6]): 18.2% | Total observations: defecation (weaning foals; [7]): 0 | Total observations: drink (weaning foals; [7]): 0 | Total observations: eat (weaning foals; [7]): 0 | Total observations: fight (weaning foals; [7]): 0 | Total observations: head shake (weaning foals; [7]): 0 | Total observations: interact (weaning foals; [7]): 0 | Total observations: lying (weaning foals; [7]): 0 | Total observations: pace (weaning foals; [7]): 0 | Total observations: paw (weaning foals; [7]): 0 | Total observations: shock (weaning foals; [7]): 0 | Total observations: stand (weaning foals; [7]): 18 | Total observations: trot (weaning foals; [7]): 0 | Total observations: vocal (weaning foals; [7]): 13 | Total observations: walk (weaning foals; [7]): 4

CC=C(C)C=O [RP, 2-methylbut-2-enal, reference compound]
increase of vocalizations compared to control treatment (weaning foals; 4 hour period after weaning): 372% | effect on feeding (eating hay) (weaning foals; 4 hour period after weaning, compared to control): decreased | Percent of observations: defecation (weaning foals; [4]): 0.3% | Percent of observations: drink (weaning foals; [4]): 0.3% | Percent of observations: feeding (weaning foals; [4]): 2.9% | Percent of observations: fight (weaning foals; [4]): 0.0% | Percent of observations: head shake (weaning foals; [4]): 0.1% | Percent of observations: interact (weaning foals; [4]): 0.0% | Percent of observations: lying (weaning foals; [4]): 0.0% | Percent of observations: pace (weaning foals; [4]): 1.4% | Percent of observations: paw (weaning foals; [4]): 0.0% | Percent of observations: shock (weaning foals; [4]): 1.0% | Percent of observations: stand (weaning foals; [4]): 30.8% | Percent of observations: trot (weaning foals; [4]): 3.1% | Percent of observations: vocal (weaning foals; [4]): 58.6% | Percent of observations: walk (weaning foals; [4]): 1.4% | Total observations: defecation (weaning foals; [5]): 2 | Total observations: drink (weaning foals; [5]): 2 | Total observations: feeding (weaning foals; [5]): 21 | Total observations: fight (weaning foals; [5]): 0 | Total observations: head shake (weaning foals; [5]): 1 | Total observations: interact (weaning foals; [5]): 0 | Total observations: lying (weaning foals; [5]): 0 | Total observations: pace (weaning foals; [5]): 10 | Total observations: paw (weaning foals; [5]): 0 | Total observations: shock (weaning foals; [5]): 7 | Total observations: stand (weaning foals; [5]): 220 | Total observations: trot (weaning foals; [5]): 22 | Total observations: vocal (weaning foals; [5]): 422 | Total observations: walk (weaning foals; [5]): 10 | increase of vocalizations over controls (weaning foals; first 10 minutes after weaning): 42 fold | Percent of observations: defecation (weaning foals; [6]): 0.0% | Percent of observations: drink (weaning foals; [6]): 0.0% | Percent of observations: eat (weaning foals; [6]): 0.0% | Percent of observations: fight (weaning foals; [6]): 0.0% | Percent of observations: head shake (weaning foals; [6]): 0.0% | Percent of observations: interact (weaning foals; [6]): 0.0% | Percent of observations: lying (weaning foals; [6]): 0.0% | Percent of observations: pace (weaning foals; [6]): 6.1% | Percent of observations: paw (weaning foals; [6]): 0.0% | Percent of observations: shock (weaning foals; [6]): 3.3% | Percent of observations: stand (weaning foals; [6]): 24.2% | Percent of observations: trot (weaning foals; [6]): 66.7% | Percent of observations: vocal (weaning foals; [6]): 69.7% | Percent of observations: walk (weaning foals; [6]): 3.0% | Total observations: defecation (weaning foals; [7]): 0 | Total observations: drink (weaning foals; [7]): 0 | Total observations: eat (weaning foals; [7]): 0 | Total observations: fight (weaning foals; [7]): 0 | Total observations: head shake (weaning foals; [7]): 0 | Total observations: interact (weaning foals; [7]): 0 | Total observations: lying (weaning foals; [7]): 0 | Total observations: pace (weaning foals; [7]): 2 | Total observations: paw (weaning foals; [7]): 0 | Total observations: shock (weaning foals; [7]): 4 | Total observations: stand (weaning foals; [7]): 8 | Total observations: trot (weaning foals; [7]): 22 | Total observations: vocal (weaning foals; [7]): 85 | Total observations: walk (weaning foals; [7]): 1
